This is an account of results in ChEMBL document CHEMBL6109103, “Dodecapeptides derived from human cathelicidin with potent activity against carbapenem-resistant Acinetobacter baumannii” (Eur J Med Chem, 2025).

Type in all cases: functional
Test [1] has as its system Acinetobacter baumannii. Put plainly: Antibacterial activity against Acinetobacter baumannii ATCC 19606 assessed as inhibition of bacterial growth incubated for 24 hrs by broth dilution assay. On the technique in general: Dilution methods test growth across graded concentrations, often in twofold steps.
For test [2], the system named is Acinetobacter baumannii. The experiment in a line: Antibacterial activity against multidrug-resistant Acinetobacter baumannii assessed as inhibition of bacterial growth incubated for 24 hrs by broth dilution assay.
The test system of test [3] is Staphylococcus aureus. Put plainly: Antibacterial activity against Methicillin-resistant Staphylococcus aureus ATCC 43300 assessed as inhibition of bacterial growth incubated for 24 hrs by broth dilution assay.
In test [4] the test system is Staphylococcus aureus. Put plainly: Antibacterial activity against Staphylococcus aureus […] assessed as inhibition of bacterial growth incubated for 24 hrs by broth dilution assay.

Values after ≈ are worked out from the molar mass of the structure shown. Positions of bridges follow the written chain, without caps; N, C: chain ends. Non-standard residues stand in square brackets, D forms with d. Residues, ends and D or L forms follow the SMILES beside them. S5 = C=CCCC[C@](C)(N)C(=O)O A value given as a limit tells only on which side of the number the result lay.

By MIC is commonly meant the lowest concentration found to suppress growth.

Turning to H-KRIVKRIKDFLR-OH, the MIC was 160 µg/mL with Acinetobacter baumannii [1], 80 µg/mL with Acinetobacter baumannii [2], over 320 µg/mL with Staphylococcus aureus [3] and over 320 µg/mL with Staphylococcus aureus [4].

Regarding H-KRIVIRIKRFLR-OH, the MIC with Acinetobacter baumannii [1] was 20 µg/mL; in the test with Acinetobacter baumannii [2], 10 µg/mL; in the test on Staphylococcus aureus [3], 80 µg/mL; in the test with Staphylococcus aureus [4] it was 160 µg/mL.

H-NLVPRTES-OH: the MIC in the test on Acinetobacter baumannii [1], with Acinetobacter baumannii [2], in the test on Staphylococcus aureus [3] and in the test on Staphylococcus aureus [4] was over 320 µg/mL in each case.

As for `O=C(O)c1cn(C2CC2)c2cc(N3CCNCC3)c(F)cc2c1=O` [CIPROFLOXACIN], the MIC in the test with Acinetobacter baumannii [1] worked out at 2.5 µg/mL (≈ 7.54 µM); in the test on Acinetobacter baumannii [2] it was 320 µg/mL (≈ 966 µM); with Staphylococcus aureus [3], 160 µg/mL (≈ 483 µM); in the test on Staphylococcus aureus [4], 2.5 µg/mL (≈ 7.54 µM).

H-KRIVIRIKKFLR-OH: the MIC in the test with Acinetobacter baumannii [1] is 80 µg/mL; with Acinetobacter baumannii [2], 40 µg/mL; with Staphylococcus aureus [3] it was 320 µg/mL; with Staphylococcus aureus [4], 160 µg/mL.

For H-KRIVRRIKKFLR-OH, the MIC with Acinetobacter baumannii [1] is 80 µg/mL; with Acinetobacter baumannii [2], 160 µg/mL; with Staphylococcus aureus [3] it was over 320 µg/mL; with Staphylococcus aureus [4], over 320 µg/mL.

H-KRIVIRIKIFLR-OH: the minimal inhibitory concentration (MIC) in the test on Acinetobacter baumannii [1] came out at 20 µg/mL; in the test on Acinetobacter baumannii [2], 20 µg/mL; with Staphylococcus aureus [3], 80 µg/mL; in the test on Staphylococcus aureus [4] it was 40 µg/mL.

For H-KRIVRRIKRFLR-OH, the MIC is 320 µg/mL with Acinetobacter baumannii [1], 320 µg/mL in the test on Acinetobacter baumannii [2], over 320 µg/mL with Staphylococcus aureus [3] and over 320 µg/mL with Staphylococcus aureus [4].

On to H-KRIVQRIKIFLR-OH, for which the MIC is 40 µg/mL in the test on Acinetobacter baumannii [1], 20 µg/mL in the test with Acinetobacter baumannii [2], over 320 µg/mL with Staphylococcus aureus [3] and 160 µg/mL with Staphylococcus aureus [4].

On to H-KRIVQRIKKFLR-OH, for which the MIC in the test with Acinetobacter baumannii [1] is 80 µg/mL; with Acinetobacter baumannii [2], 20 µg/mL; with Staphylococcus aureus [3], over 320 µg/mL; with Staphylococcus aureus [4] it was over 320 µg/mL.

Consider H-KRIVKRIKKFLR-OH, for which the MIC with Acinetobacter baumannii [1] is 160 µg/mL; in the test with Acinetobacter baumannii [2] it was over 320 µg/mL; in the test on Staphylococcus aureus [3], 160 µg/mL; in the test on Staphylococcus aureus [4], over 320 µg/mL.

Turning to H-KRIVIRIKDFLR-OH, the minimum inhibitory concentration (MIC) is 160 µg/mL in the test with Acinetobacter baumannii [1], 80 µg/mL in the test on Acinetobacter baumannii [2], over 320 µg/mL in the test on Staphylococcus aureus [3] and over 320 µg/mL in the test on Staphylococcus aureus [4].

Take `CC[C@H](C)[C@@H]1NC(=O)[C@H](CCCNC(=N)N)NC(=O)[C@H](CCCNC(=N)N)NC(=O)[C@H](C(C)C)NC(=O)[C@@](C)(NC(=O)[C@H](CCCNC(=N)N)NC(=O)[C@@H](N)CCCCN)CCC/C=C/CCC[C@@](C)(C(=O)N[C@@H](CC(C)C)C(=O)N[C@@H](CCCNC(=N)N)C(=O)O)NC(=O)[C@H]([C@@H](C)CC)NC(=O)[C@H](CCCCN)NC1=O` (H-KR[S5]VRRIKI[S5]LR-OH; staple (E) 3-10): the MIC in the test with Acinetobacter baumannii [1] is 20 µg/mL (≈ 12.6 µM); with Acinetobacter baumannii [2], 10 µg/mL (≈ 6.3 µM); in the test on Staphylococcus aureus [3] it was 80 µg/mL (≈ 50.4 µM); in the test with Staphylococcus aureus [4], 80 µg/mL (≈ 50.4 µM).

Consider `CC[C@H](C)[C@H](NC(=O)[C@H](CCCCN)NC(=O)[C@@H](NC(=O)[C@]1(C)CCC/C=C\CCC[C@](C)(NC(=O)[C@@H](N)CCCCN)C(=O)N[C@@H]([C@@H](C)CC)C(=O)N[C@@H](C(C)C)C(=O)N[C@@H](CCCNC(=N)N)C(=O)N1)[C@@H](C)CC)C(=O)N[C@@H](Cc1ccccc1)C(=O)N[C@@H](CC(C)C)C(=O)N[C@@H](CCCNC(=N)N)C(=O)O` (H-K[S5]IVR[S5]IKIFLR-OH; staple (Z) 2-6), for which the MIC is 10 µg/mL (≈ 6.51 µM) in the test with Acinetobacter baumannii [1], 10 µg/mL (≈ 6.51 µM) in the test with Acinetobacter baumannii [2], 320 µg/mL (≈ 208 µM) with Staphylococcus aureus [3] and 320 µg/mL (≈ 208 µM) in the test on Staphylococcus aureus [4].

As to `CO/N=C(\C(=O)N[C@@H]1C(=O)N2C(C(=O)O)=C(COC(C)=O)CS[C@H]12)c1csc(N)n1` [CEFOTAXIME], the MIC in the test on Acinetobacter baumannii [1] was 20 µg/mL (≈ 43.9 µM); in the test with Acinetobacter baumannii [2], over 320 µg/mL; in the test on Staphylococcus aureus [3] it was over 320 µg/mL; in the test with Staphylococcus aureus [4], 2.5 µg/mL (≈ 5.49 µM).

Take H-LLGDFFRKSKEKIGKEF-OH: the MIC with Acinetobacter baumannii [1], in the test with Acinetobacter baumannii [2], in the test with Staphylococcus aureus [3] and in the test with Staphylococcus aureus [4] was over 320 µg/mL throughout.

For the compound H-KRIVRRIKDFLR-OH, the MIC in the test on Acinetobacter baumannii [1] is 320 µg/mL; in the test on Acinetobacter baumannii [2] it was 320 µg/mL; with Staphylococcus aureus [3], over 320 µg/mL; in the test on Staphylococcus aureus [4], over 320 µg/mL.

Turning to `CC[C@H](C)[C@@H]1NC(=O)[C@H](CCCNC(=N)N)NC(=O)[C@H](CCCNC(=N)N)NC(=O)[C@@](C)(NC(=O)[C@@H](NC(=O)[C@H](CCCNC(=N)N)NC(=O)[C@@H](N)CCCCN)[C@@H](C)CC)CCC/C=C\CCC[C@@](C)(C(=O)N[C@@H](CCCNC(=N)N)C(=O)O)NC(=O)[C@H](Cc2ccccc2)NC(=O)[C@H]([C@@H](C)CC)NC(=O)[C@H](CCCCN)NC1=O` (H-KRI[S5]RRIKIF[S5]R-OH; staple (Z) 4-11), the minimal inhibitory concentration (MIC) with Acinetobacter baumannii [1], in the test on Acinetobacter baumannii [2], in the test on Staphylococcus aureus [3] and in the test on Staphylococcus aureus [4] was over 320 µg/mL in each case.

On to `CC[C@H](C)[C@H](NC(=O)[C@H](CCCCN)NC(=O)[C@@H](NC(=O)[C@H](CCCNC(=N)N)NC(=O)[C@]1(C)CCC/C=C/CCC[C@](C)(N)C(=O)N[C@@H](CCCNC(=N)N)C(=O)N[C@@H]([C@@H](C)CC)C(=O)N[C@@H](C(C)C)C(=O)N1)[C@@H](C)CC)C(=O)N[C@@H](Cc1ccccc1)C(=O)N[C@@H](CC(C)C)C(=O)N[C@@H](CCCNC(=N)N)C(=O)O` (H-[S5]RIV[S5]RIKIFLR-OH; staple (E) 1-5), for which the MIC in the test on Acinetobacter baumannii [1] was determined as 10 µg/mL (≈ 6.39 µM); in the test with Acinetobacter baumannii [2], 10 µg/mL (≈ 6.39 µM); in the test on Staphylococcus aureus [3], 160 µg/mL (≈ 102 µM); in the test with Staphylococcus aureus [4] it was 160 µg/mL (≈ 102 µM).

Consider `CC[C@H](C)[C@@H]1NC(=O)[C@H](CCCNC(=N)N)NC(=O)[C@H](CCCNC(=N)N)NC(=O)[C@H](C(C)C)NC(=O)[C@H]([C@@H](C)CC)NC(=O)[C@@](C)(NC(=O)[C@@H](N)CCCCN)CCC/C=C\CCC[C@@](C)(C(=O)N[C@@H](Cc2ccccc2)C(=O)N[C@@H](CC(C)C)C(=O)N[C@@H](CCCNC(=N)N)C(=O)O)NC(=O)[C@H](CCCCN)NC1=O` (H-K[S5]IVRRIK[S5]FLR-OH; staple (Z) 2-9), for which the MIC with Acinetobacter baumannii [1] was 320 µg/mL (≈ 203 µM); with Acinetobacter baumannii [2], 160 µg/mL (≈ 101 µM); with Staphylococcus aureus [3], over 320 µg/mL; with Staphylococcus aureus [4] it was over 320 µg/mL.

Regarding `CC[C@H](C)[C@@H]1NC(=O)[C@H](CCCCN)NC(=O)[C@@](C)(NC(=O)[C@H](CCCNC(=N)N)NC(=O)[C@H](CCCNC(=N)N)NC(=O)[C@@H](NC(=O)[C@@H](NC(=O)[C@H](CCCNC(=N)N)NC(=O)[C@@H](N)CCCCN)[C@@H](C)CC)C(C)C)CCC/C=C\CCC[C@@](C)(C(=O)N[C@@H](CCCNC(=N)N)C(=O)O)NC(=O)[C@H](Cc2ccccc2)NC1=O` (H-KRIVRR[S5]KIF[S5]R-OH; staple (Z) 7-11), the MIC with Acinetobacter baumannii [1], in the test on Acinetobacter baumannii [2], with Staphylococcus aureus [3] and in the test on Staphylococcus aureus [4] was over 320 µg/mL in each case.

With H-KRIVKRIKRFLR-OH, the MIC with Acinetobacter baumannii [1] is 80 µg/mL; with Acinetobacter baumannii [2] it was 80 µg/mL; in the test on Staphylococcus aureus [3] it was over 320 µg/mL; with Staphylococcus aureus [4], over 320 µg/mL.

For the compound `CC[C@H](C)[C@H](NC(=O)[C@H](CCCNC(=N)N)NC(=O)[C@@H](N)CCCCN)C(=O)N[C@H](C(=O)N[C@@H](CCCNC(=N)N)C(=O)N[C@@H](CCCNC(=N)N)C(=O)N[C@H](C(=O)N[C@@]1(C)CCC/C=C\CCC[C@@](C)(C(=O)O)NC(=O)[C@H](CC(C)C)NC(=O)[C@H](Cc2ccccc2)NC(=O)[C@H]([C@@H](C)CC)NC1=O)[C@@H](C)CC)C(C)C` (H-KRIVRRI[S5]IFL[S5]-OH; staple (Z) 8-12), the MIC with Acinetobacter baumannii [1] is 10 µg/mL (≈ 6.39 µM); with Acinetobacter baumannii [2], 10 µg/mL (≈ 6.39 µM); with Staphylococcus aureus [3], 40 µg/mL (≈ 25.6 µM); in the test with Staphylococcus aureus [4] it was 80 µg/mL (≈ 51.1 µM).

Regarding H-KRIVQRIKRFLR-OH, the MIC with Acinetobacter baumannii [1] is 160 µg/mL; in the test on Acinetobacter baumannii [2] it was 80 µg/mL; in the test with Staphylococcus aureus [3] it was over 320 µg/mL; in the test with Staphylococcus aureus [4] it was over 320 µg/mL.
